Source: patent US6960574B2, “Antagonists of RF-amide neuropeptides” (University of Florida, priority 2002, dated 2005)
Peptide text beside a SMILES is read from it. * marks the point of attachment. Dansyl = CN(C)c1cccc2c(S(=O)(=O)*)cccc12

Tested on: receptor labeled by the radioiodinated analogue of 1 (4, [125I]-YLFQPQRF-NH2); neuropeptide FF receptor
Experiment: Competitive radioligand binding against 4 ([125I]Y8F-amide)
Details: mixture-based positional scanning; difference from averaged radioligand displacement of whole library (0); about 80 a.u. = 10-fold change in Ki

| Relative Binding Index (RBI) [a.u.] | SMILES |
| --- | --- |
| −1 | CC(C)[C@H](NS(=O)(=O)c1cccc2c(N(C)C)cccc12)C(=O)N1CCC[C@H]1C(=O)N[C@@H](CCCNC(=N)N)C(N)=O [Dansyl-VPR-amide] (Dansyl-Val-Pro-Arg-NH2) |
| 9 | CC(C)[C@H](NS(=O)(=O)c1cccc2c(N(C)C)cccc12)C(=O)N[C@@H](CCC(N)=O)C(=O)N[C@@H](CCCNC(=N)N)C(N)=O [Dansyl-VQR-amide] (Dansyl-Val-Gln-Arg-NH2) |
| −6 | CC(C)[C@H](NS(=O)(=O)c1cccc2c(N(C)C)cccc12)C(=O)N[C@@H](CCCNC(=N)N)C(=O)N[C@@H](CCCNC(=N)N)C(N)=O [Dansyl-VRR-amide] (Dansyl-Val-Arg-Arg-NH2) |
| 16 | CC(C)[C@H](NS(=O)(=O)c1cccc2c(N(C)C)cccc12)C(=O)N[C@@H](CO)C(=O)N[C@@H](CCCNC(=N)N)C(N)=O [Dansyl-VSR-amide] |
| 1 | CC(C)[C@H](NS(=O)(=O)c1cccc2c(N(C)C)cccc12)C(=O)N[C@H](C(=O)N[C@@H](CCCNC(=N)N)C(N)=O)[C@@H](C)O [Dansyl-VTR-amide] (Dansyl-Val-Thr-Arg-NH2) |
| −9 | CC(C)[C@H](NC(=O)[C@@H](NS(=O)(=O)c1cccc2c(N(C)C)cccc12)C(C)C)C(=O)N[C@@H](CCCNC(=N)N)C(N)=O [Dansyl-VVR-amide] (Dansyl-Val-Val-Arg-NH2) |
| 4 | CC(C)[C@H](NS(=O)(=O)c1cccc2c(N(C)C)cccc12)C(=O)N[C@@H](Cc1c[nH]c2ccccc12)C(=O)N[C@@H](CCCNC(=N)N)C(N)=O [Dansyl-VWR-amide] (Dansyl-Val-Trp-Arg-NH2) |
| −6 | CC(C)[C@H](NS(=O)(=O)c1cccc2c(N(C)C)cccc12)C(=O)N[C@@H](Cc1ccc(O)cc1)C(=O)N[C@@H](CCCNC(=N)N)C(N)=O [Dansyl-VYR-amide] (Dansyl-Val-Tyr-Arg-NH2) |
| −40 | C[C@H](NC(=O)[C@H](Cc1c[nH]c2ccccc12)NS(=O)(=O)c1cccc2c(N(C)C)cccc12)C(=O)N[C@@H](CCCNC(=N)N)C(N)=O [Dansyl-WAR-amide] (Dansyl-Trp-Ala-Arg-NH2) |
| −9 | CN(C)c1cccc2c(S(=O)(=O)N[C@@H](Cc3c[nH]c4ccccc34)C(=O)N[C@@H](CC(=O)O)C(=O)N[C@@H](CCCNC(=N)N)C(N)=O)cccc12 [Dansyl-WDR-amide] (Dansyl-Trp-Asp-Arg-NH2) |
| 9 | CN(C)c1cccc2c(S(=O)(=O)N[C@@H](Cc3c[nH]c4ccccc34)C(=O)N[C@@H](CCC(=O)O)C(=O)N[C@@H](CCCNC(=N)N)C(N)=O)cccc12 [Dansyl-WER-amide] (Dansyl-Trp-Glu-Arg-NH2) |
| 7 | CN(C)c1cccc2c(S(=O)(=O)N[C@@H](Cc3c[nH]c4ccccc34)C(=O)N[C@@H](Cc3ccccc3)C(=O)N[C@@H](CCCNC(=N)N)C(N)=O)cccc12 [Dansyl-WFR-amide] |
| 14 | CN(C)c1cccc2c(S(=O)(=O)N[C@@H](Cc3c[nH]c4ccccc34)C(=O)NCC(=O)N[C@@H](CCCNC(=N)N)C(N)=O)cccc12 [Dansyl-WGR-amide] (Dansyl-Trp-Gly-Arg-NH2) |
| 3 | CN(C)c1cccc2c(S(=O)(=O)N[C@@H](Cc3c[nH]c4ccccc34)C(=O)N[C@@H](Cc3c[nH]cn3)C(=O)N[C@@H](CCCNC(=N)N)C(N)=O)cccc12 [Dansyl-WHR-amide] (Dansyl-Trp-His-Arg-NH2) |
| 15 | CCC(C)C(NC(=O)C(Cc1c[nH]c2ccccc12)NS(=O)(=O)c1cccc2c(N(C)C)cccc12)C(=O)NC(CCCNC(=N)N)C(N)=O (stereo not drawn) [Dansyl-WIR-amide] (Dansyl-Trp-Ile-Arg-NH2; configuration not given here) |
| 6 | CN(C)c1cccc2c(S(=O)(=O)N[C@@H](Cc3c[nH]c4ccccc34)C(=O)N[C@@H](CCCCN)C(=O)N[C@@H](CCCNC(=N)N)C(N)=O)cccc12 [Dansyl-WKR-amide] (Dansyl-Trp-Lys-Arg-NH2) |
| 0 | CC(C)C[C@H](NC(=O)[C@H](Cc1c[nH]c2ccccc12)NS(=O)(=O)c1cccc2c(N(C)C)cccc12)C(=O)N[C@@H](CCCNC(=N)N)C(N)=O [Dansyl-WLR-amide] |
| 9 | CSCC[C@H](NC(=O)[C@H](Cc1c[nH]c2ccccc12)NS(=O)(=O)c1cccc2c(N(C)C)cccc12)C(=O)N[C@@H](CCCNC(=N)N)C(N)=O [Dansyl-WMR-amide] (Dansyl-Trp-Met-Arg-NH2) |
| 10 | CN(C)c1cccc2c(S(=O)(=O)N[C@@H](Cc3c[nH]c4ccccc34)C(=O)N[C@@H](CC(N)=O)C(=O)N[C@@H](CCCNC(=N)N)C(N)=O)cccc12 [Dansyl-WNR-amide] (Dansyl-Trp-Asn-Arg-NH2) |
| 12 | CN(C)c1cccc2c(S(=O)(=O)N[C@@H](Cc3c[nH]c4ccccc34)C(=O)N3CCC[C@H]3C(=O)N[C@@H](CCCNC(=N)N)C(N)=O)cccc12 [Dansyl-WPR-amide] (Dansyl-Trp-Pro-Arg-NH2) |
| 22 | CN(C)c1cccc2c(S(=O)(=O)N[C@@H](Cc3c[nH]c4ccccc34)C(=O)N[C@@H](CCC(N)=O)C(=O)N[C@@H](CCCNC(=N)N)C(N)=O)cccc12 [Dansyl-WQR-amide] (Dansyl-Trp-Gln-Arg-NH2) |
| 7 | CN(C)c1cccc2c(S(=O)(=O)N[C@@H](Cc3c[nH]c4ccccc34)C(=O)N[C@@H](CCCNC(=N)N)C(=O)N[C@@H](CCCNC(=N)N)C(N)=O)cccc12 [Dansyl-WRR-amide] (Dansyl-Trp-Arg-Arg-NH2) |
| 29 | CN(C)c1cccc2c(S(=O)(=O)N[C@@H](Cc3c[nH]c4ccccc34)C(=O)N[C@@H](CO)C(=O)N[C@@H](CCCNC(=N)N)C(N)=O)cccc12 [Dansyl-WSR-amide] (Dansyl-Trp-Ser-Arg-NH2) |
| 14 | C[C@@H](O)[C@H](NC(=O)[C@H](Cc1c[nH]c2ccccc12)NS(=O)(=O)c1cccc2c(N(C)C)cccc12)C(=O)N[C@@H](CCCNC(=N)N)C(N)=O [Dansyl-WTR-amide] (Dansyl-Trp-Thr-Arg-NH2) |
| 4 | CC(C)[C@H](NC(=O)[C@H](Cc1c[nH]c2ccccc12)NS(=O)(=O)c1cccc2c(N(C)C)cccc12)C(=O)N[C@@H](CCCNC(=N)N)C(N)=O [Dansyl-WVR-amide] (Dansyl-Trp-Val-Arg-NH2) |
| 17 | CN(C)c1cccc2c(S(=O)(=O)N[C@@H](Cc3c[nH]c4ccccc34)C(=O)N[C@@H](Cc3c[nH]c4ccccc34)C(=O)N[C@@H](CCCNC(=N)N)C(N)=O)cccc12 [Dansyl-WWR-amide] (Dansyl-Trp-Trp-Arg-NH2) |
| 7 | CN(C)c1cccc2c(S(=O)(=O)N[C@@H](Cc3c[nH]c4ccccc34)C(=O)N[C@@H](Cc3ccc(O)cc3)C(=O)N[C@@H](CCCNC(=N)N)C(N)=O)cccc12 [Dansyl-WYR-amide] (Dansyl-Trp-Tyr-Arg-NH2) |
| −42 | C[C@H](NC(=O)[C@H](Cc1ccc(O)cc1)NS(=O)(=O)c1cccc2c(N(C)C)cccc12)C(=O)N[C@@H](CCCNC(=N)N)C(N)=O [Dansyl-YAR-amide] (Dansyl-Tyr-Ala-Arg-NH2) |
